Test results taken from the NIST ThermoML archive (doi:10.1016/j.jct.2016.02.009).
Several values for one entry are separate records, joined by “and”; a condition that tells them apart may be missing. Identical values can stand only once.

Experiment: molar heat capacity at constant pressure
Settings: 101.33 kPa, Small (less than 1 g) adiabatic calorimetry

CCCCCCCCCCCCCCn1cc[n+](C)c1.O=S(=O)([N-]S(=O)(=O)C(F)(F)F)C(F)(F)F
Settings | molar heat capacity at constant pressure
180 K, Crystal 2 | 473.1 J/K/mol
180.86 K, Crystal 2 | 474.8 J/K/mol
181.71 K, Crystal 2 | 476.2 J/K/mol
183.59 K, Crystal 2 | 479.9 J/K/mol
184.16 K, Crystal 2 | 480.9 J/K/mol
186.32 K, Crystal 2 | 485.4 J/K/mol
186.61 K, Crystal 2 | 485.8 J/K/mol
189.04 K, Crystal 2 | 490.7 J/K/mol
189.07 K, Crystal 2 | 490.4 J/K/mol
190 K, Crystal 2 | 492.5 J/K/mol
191.51 K, Crystal 2 | 495.2 J/K/mol
191.77 K, Crystal 2 | 496.1 J/K/mol
193.95 K, Crystal 2 | 500 J/K/mol
194.49 K, Crystal 2 | 501.3 J/K/mol
196.39 K, Crystal 2 | 504.9 J/K/mol
197.2 K, Crystal 2 | 507 J/K/mol
198.82 K, Crystal 2 | 509.9 J/K/mol
199.91 K, Crystal 2 | 512.5 J/K/mol
200 K, Crystal 2 | 512.7 J/K/mol
201.26 K, Crystal 2 | 515.7 J/K/mol
202.62 K, Crystal 2 | 518.2 J/K/mol
203.7 K, Crystal 2 | 520.6 J/K/mol
205.33 K, Crystal 2 | 523.7 J/K/mol
206.13 K, Crystal 2 | 525.4 J/K/mol
208.03 K, Crystal 2 | 529.6 J/K/mol
208.56 K, Crystal 2 | 530.7 J/K/mol
210 K, Crystal 2 | 533.6 J/K/mol
210.73 K, Crystal 2 | 535.2 J/K/mol
210.99 K, Crystal 2 | 535.9 J/K/mol
213.42 K, Crystal 2 | 541.2 J/K/mol and 540.9 J/K/mol
215.85 K, Crystal 2 | 546.3 J/K/mol
216.12 K, Crystal 2 | 547 J/K/mol
218.27 K, Crystal 2 | 551.8 J/K/mol
218.8 K, Crystal 2 | 552.9 J/K/mol
220 K, Crystal 2 | 556 J/K/mol
220.69 K, Crystal 2 | 557.4 J/K/mol
221.49 K, Crystal 2 | 559.3 J/K/mol
223.1 K, Crystal 2 | 562.9 J/K/mol
224.17 K, Crystal 2 | 565.7 J/K/mol
225.52 K, Crystal 2 | 568.8 J/K/mol
226.84 K, Crystal 2 | 572.3 J/K/mol
227.93 K, Crystal 2 | 575.1 J/K/mol
229.5 K, Crystal 2 | 579.5 J/K/mol
230 K, Crystal 2 | 580.3 J/K/mol
230.33 K, Crystal 2 | 581.3 J/K/mol
232.15 K, Crystal 2 | 586.6 J/K/mol
232.74 K, Crystal 2 | 587.7 J/K/mol
234.8 K, Crystal 2 | 593.8 J/K/mol
235.14 K, Crystal 2 | 593.7 J/K/mol
237.44 K, Crystal 2 | 600.9 J/K/mol
237.53 K, Crystal 2 | 600.1 J/K/mol
239.92 K, Crystal 2 | 607.2 J/K/mol
240 K, Crystal 2 | 607.6 J/K/mol
240.07 K, Crystal 2 | 608 J/K/mol
242.33 K, Crystal 2 | 613.8 J/K/mol
242.71 K, Crystal 2 | 616.1 J/K/mol
244.72 K, Crystal 2 | 621.4 J/K/mol
245.33 K, Crystal 2 | 624.4 J/K/mol
247.1 K, Crystal 2 | 629.1 J/K/mol
247.95 K, Crystal 2 | 632.9 J/K/mol
249.48 K, Crystal 2 | 637 J/K/mol
250 K, Crystal 2 | 639.3 J/K/mol
250.55 K, Crystal 2 | 642.1 J/K/mol
251.33 K, Crystal 2 | 642.4 J/K/mol
252.65 K, Crystal 2 | 648 J/K/mol
253.15 K, Crystal 2 | 651.7 J/K/mol
253.97 K, Crystal 2 | 653.1 J/K/mol
255.29 K, Crystal 2 | 657.1 J/K/mol
255.74 K, Crystal 2 | 660.9 J/K/mol
256.6 K, Crystal 2 | 662.4 J/K/mol
257.91 K, Crystal 2 | 667.6 J/K/mol
258.31 K, Crystal 2 | 671.7 J/K/mol
259.22 K, Crystal 2 | 673.8 J/K/mol
260 K, Crystal 2 | 677.5 J/K/mol
260.52 K, Crystal 2 | 679.4 J/K/mol
260.86 K, Crystal 2 | 683.4 J/K/mol
261.81 K, Crystal 2 | 685.8 J/K/mol
263.1 K, Crystal 2 | 692.1 J/K/mol
263.41 K, Crystal 2 | 696 J/K/mol
264.39 K, Crystal 2 | 699.3 J/K/mol
265.67 K, Crystal 2 | 706.4 J/K/mol
265.94 K, Crystal 2 | 709.4 J/K/mol
266.97 K, Crystal 2 | 713.8 J/K/mol
268.24 K, Crystal 2 | 721.6 J/K/mol
268.46 K, Crystal 2 | 725 J/K/mol
269.5 K, Crystal 2 | 730 J/K/mol
270 K, Crystal 2 | 734.5 J/K/mol
270.76 K, Crystal 2 | 739.3 J/K/mol
270.95 K, Crystal 2 | 741.9 J/K/mol
272.01 K, Crystal 2 | 748.9 J/K/mol
273.25 K, Crystal 2 | 759 J/K/mol
273.42 K, Crystal 2 | 761.2 J/K/mol
274.48 K, Crystal 2 | 769.6 J/K/mol
275.71 K, Crystal 2 | 781.6 J/K/mol
275.87 K, Crystal 2 | 783.5 J/K/mol
276.93 K, Crystal 2 | 793.6 J/K/mol
278.14 K, Crystal 2 | 807.6 J/K/mol
278.29 K, Crystal 2 | 809.7 J/K/mol
279.35 K, Crystal 2 | 822 J/K/mol
280 K, Crystal 2 | 830.5 J/K/mol
280.54 K, Crystal 2 | 837.6 J/K/mol
280.67 K, Crystal 2 | 840.7 J/K/mol
281.72 K, Crystal 2 | 855 J/K/mol
282.9 K, Crystal 2 | 874.3 J/K/mol
283.02 K, Crystal 2 | 878.3 J/K/mol
284.05 K, Crystal 2 | 895.5 J/K/mol
285.2 K, Crystal 2 | 918.1 J/K/mol
285.31 K, Crystal 2 | 923.3 J/K/mol
286.34 K, Crystal 2 | 943.8 J/K/mol
287.46 K, Crystal 2 | 972.2 J/K/mol
287.56 K, Crystal 2 | 977.1 J/K/mol
288.56 K, Crystal 2 | 1003 J/K/mol
289.65 K, Crystal 2 | 1034 J/K/mol
289.75 K, Crystal 2 | 1039 J/K/mol
290 K, Crystal 2 | 1046 J/K/mol
290.72 K, Crystal 2 | 1067 J/K/mol
291.76 K, Crystal 2 | 1097 J/K/mol
291.87 K, Crystal 2 | 1102 J/K/mol
292.8 K, Crystal 2 | 1118 J/K/mol
293.83 K, Crystal 2 | 1139 J/K/mol
293.96 K, Crystal 2 | 1145 J/K/mol
294.85 K, Crystal 2 | 1153 J/K/mol
295.5 K, Crystal 1 | 1155 J/K/mol
295.5 K, Crystal 2 | 1155 J/K/mol
295.86 K, Crystal 1 | 1154 J/K/mol
296 K, Crystal 1 | 1156 J/K/mol
296.87 K, Crystal 1 | 1144 J/K/mol
297.93 K, Crystal 1 | 998.8 J/K/mol
298.13 K, Crystal 1 | 971.7 J/K/mol
298.15 K, Crystal 1 | 971.6 J/K/mol
299.06 K, Crystal 1 | 853.3 J/K/mol
300 K, Crystal 1 | 851.8 J/K/mol
300.22 K, Crystal 1 | 854.4 J/K/mol
300.42 K, Crystal 1 | 852.5 J/K/mol
301.39 K, Crystal 1 | 866.6 J/K/mol
302.54 K, Crystal 1 | 889.6 J/K/mol
302.77 K, Crystal 1 | 884.7 J/K/mol
303.68 K, Crystal 1 | 937.6 J/K/mol
304.77 K, Crystal 1 | 1081 J/K/mol
304.97 K, Crystal 1 | 1130 J/K/mol
305.73 K, Crystal 1 | 1438 J/K/mol
308.77 K, Crystal 1 | 898.6 J/K/mol
308.77 K, Liquid | 896.2 J/K/mol
310 K, Liquid | 897.4 J/K/mol
320 K, Liquid | 907.2 J/K/mol
330 K, Liquid | 917 J/K/mol
340 K, Liquid | 926.7 J/K/mol
350 K, Liquid | 936.5 J/K/mol
360 K, Liquid | 946.2 J/K/mol
370 K, Liquid | 956 J/K/mol
